Here are results for 3 compounds from patent publication US20140162958A1, “Copolymer-1 Composition and Methods of Use” (priority 2012, published 2014).

The format of data set [1] is in vivo, patient (the inventor). On the procedure: A series of compositions comprising an amount of copolymer-1 and a local anesthetic were generated in order to provide for a formulation that was substantially free of Site Reactions upon injection. Briefly, the methodology involved titrating amounts of an injectable local anesthetic (bupivacaine, 0.5%) to a solution of copolymer-1 (provided as COPAXONE®, 20 mg injectable syringe). […] This percentage of local anesthetic is well below clinical dosages typically used for skin infiltration for pain control (e.g. 0.25%). The composition was stable for over 30 days both at room temperature and when refrigerated.
The composition described in Example 1 (0.2 mL of bupivacaine (at 0.5%) added to 1.0 mL COPAXONE®, 20 mg injectable syringe) was used in this Example.
The inventor, Dr. Robbins, an anesthesiologist and pain management specialist familiar with the use of local anesthetics in procedures such as spinal epidurals, has been diagnosed with multiple sclerosis and has been prescribed COPAXONE® in order to treat the disease. […] Oral pain management (Motrin) and immediate icing of the injection site were ineffective in alleviating the pain associated with the COPAXONE® injection. […]

Data set [2] concerns 5-hydroxytryptamine (5-HT) induced plasma extravasation. As to conditions: concentration of about 0.083%; cited from earlier work.
Data set [3] concerns experimental autoimmune encephalomyelitis (EAE). The settings on record: in vivo; cited from earlier work.
The subject of another data set is RRMS patients. As to conditions: 40 mg/mL subcutaneous injection three times a week; cited from earlier work.
In data set [4] the test system is exacerbating-remitting form of multiple sclerosis. As to conditions: daily injections; cited from earlier work.

Consider `CC(C)Cc1ccc(C(C)C(=O)O)cc1` (stereo not drawn) [Motrin], for which the “alleviation of the pain associated with the COPAXONE injection” value in data set [1] (oral pain management) is “ineffective”.

Regarding `CCCCN1CCCCC1C(=O)Nc1c(C)cccc1C` (stereo not drawn) [bupivacaine], the “inhibition of 5-HT induced plasma extravasation” value in data set [2] is on record as “greater than 95%”.

Turning to copolymer-1, in data set [3], the “suppression of EAE” value is “suppress EAE”. Also, the “primary endpoint (reducing the annualized relapse rate relative to placebo)” value in the data set with RRMS patients is given as “met its primary endpoint”. Moreover, the “exacerbations and increases in disability status versus control patients” value in data set [4] is “fewer exacerbations and smaller increases in their disability status”. In addition, the “pain / Site Reactions associated with the treatment” value in data set [1] (human, in vivo) is “skin wheals, immediate pain upon injection and continuing post-injection pain”.
